Results reported in patent publication US20090247520A1, “INHIBITORS OF ANTIGEN RECEPTOR-INDUCED NF-kappa B ACTIVATION” (The Burnham Institute for Medical Research, priority 2008, published 2009).
Read-outs that look alike come from different tables or passages of the source.

Assays:
[1] = test system: PMA/Ionomycin-induced p65-RelA DNA-binding activity; assay: NF-κB p65 DNA-binding activity, PMA/Ionomycin-stimulated HEK293 cells; type: cell-based
Description: (§1) (A) Structures of two hit compounds, CID-2858522 (left) and CID-2998237 (right) are shown; (B, C) 293-NF-κB-luc cells were pretreated for 2 hrs with various concentration of either CID-2858522 (B) or CID-29982387 (C) and then stimulated with TNF (10 ng/mL) or PMA/lonomycin (10 ng/mL; 5 ng/mL) for 16 h. Luciferase activity was measured and data were expressed as a percentage relative to control treatment with DMSO only (mean±SD; n=3). (D) 293-NF-κB-luc cells were pretreated for 2 h with various concentrations of CID-2858522 or CID-2998237, then stimulated with PMA/lonomycin for 16 h. IL-8 release into the medium was measured, expressing data as a percentage relative to control cultures treated with DMSO (mean±SD; n=3). (E) 293-NF-κB-luc cells were pretreated with CID-2858522 and then stimulated with PDBu for 16 h, IL-8 production and NF-κB luciferase activity were measured as above. (F) 293-NF-κB-luc cells were pretreated for 2 h with various concentrations of CID-2858522 or a PKC inhibitor (Bisindolylmaleimide I) at 1 μM followed by PMA/Ionomycin (10 ng/mL) stimulation for 2 h, then p65-DNA-binding activity was measured in nuclear extracts (10 μg protein), expressing data as fold-increase relative to unstimulated cells (mean±SD; n=3).
NF-κB DNA-binding activity assays. Nuclear extracts were prepared from 10 cm^2 plates of confluent cells using a kit (Active Motif, Carsbad, Calif.). The total protein content of nuclear fractions was quantified by the Bradford method, followed by storage at −80° C. NF-κB DNA-binding activity was measured in nuclear extracts (10 μg protein) using an immunoassay method (TransAM Kit [Active Motif]) employing 96 well plates coated with double-strand oligodeoxynucleotides containing NF-κB consensus binding site (5′-[…]-3′) and anti-p65 antibody, which was detected by secondary horseradish peroxidase (HRP)-conjugated antibody, using a calorimetric substrate with absorbance read at 450 nm within 5 minutes using a spectrophotometer, SpectraMax M5 (Molecular Devices, Sunnyvale, Calif.).

IKK-β phosphorylation = assay: PMA/Ionomycin-induced IKK-β phosphorylation in HEK293 cells; type: cell-based; conditions: 4 μM
Description: FIG. 7. CID-285852 inhibits IKKβ phosphorylation induced by PKC activators. (A) HEK293 cells were cultured in 0.5% FBS medium for 24 h and then treated with CID-2858522 (4 μM) or PKC inhibitor, Bisindolylmaleimide I (1 μM) for 2 hrs followed by PMA/Ionomycin (10 ng/mL; 5 ng/mL) for 2 h. Cell lysates were subjected to immunoprecipitation using anti-CARMA1 antibody and analyzed by immunoblotting with anti-phospho-CARMA1 antibody or anti-CARMA1 antibody. (B-E) HEK293 cells were transfected with plasmids encoding myc-CARMA1 in combination with plasmids encoding various other proteins including Caspase-8 (cys287ala) (B), HA-IKK-γ (C), HA-TAK1 (D), and TRAF6 (E). After 36 h. cells were cultured in 0.5% FBS medium for 12 h and then treated with CID-2858522 (4 μM) or Bisindolylmaleimide I (1 μM) for 2 hrs, followed by PMA/Ionomycin treatment (10 ng/mL; 5 ng/mL) for 2 hrs. Cell lysates were immunoprecipated using anti-myc antibody and analyzed by immunoblotting using anti-Caspase8 (B), anti-HA (C,D), or anti-TRAF6 (E) antibodies. […] Cell lysates were normalized for protein content and analyzed by immunoblotting using anti-FLIP and anti-alpha-tubulin antibodies. […] Cell lysates were immunoprecipitated using anti-IKK-β and analyzed by immunoblotting using anti-phospho-IKK-β antibody or anti-IKK-β antibody (as loading control). […]

[2] = test system: PDB-induced IL-8 production; assay: PDBu-induced IL-8 production by HEK293 cells; type: cell-based; conditions: Homo sapiens
Description: as §1
Lymphokine measurements. […]

Raf = assay: KINOMEscan competition binding assay, Raf; set-up: species or system human; conditions: 10 μM
From the text: CID-2858522 is not a potent protein kinase inhibitor. Protein kinases play critical roles in NF-κB activation. PKCs are proximal kinases in the NF-κB pathways activated by PMA/Ionomycin and by T- and B-cell antigen receptors, while the IKKs are distal kinases operating in the terminal segments of these and other NF-κB activation pathways. We therefore tested whether CID-2858522 inhibits members of these kinase families by in vitro kinase assays. For these experiments, we tested PKC-beta and PKC-theta (the PKC family members implicated in TCR/BCR signaling), and IKK-beta (a component of the IKK complex) (FIG. 6). […] In addition to assessing these three kinases by conventional in vitro kinase assays, a kinome screen was performed using a high throughput screening method, KINOMEscan™, which is an active-site dependent competition binding assay in which human kinases of interest are fused to a proprietary tag (Ambit). The amount of kinase bound to an immobilized, active-site directed ligand is measured in the presence and absence of the test compound. […] Thus, CID-2858522 inhibits none of the protein kinases previously implicated in regulating NF-κB.
In Vitro Kinase Assays. PKC-beta, PKC-theta and IKK-beta in vitro kinase assays were performed using the HTScan Kinase Assay Kit (Cell Signaling, Danvers, Mass.) according to manufacturer's protocols. […]

## Cc1cc2nc(NCCCO)n(CC(=O)c3cc(C(C)(C)C)c(O)c(C(C)(C)C)c3)c2cc1C [Compound 1, 2-(2-(3-Hydroxypropylamino)-5,6-dimethyl-1H-benzo[d]imidazol-1-yl)-1-(3,5-di-tert-butyl-4-hydroxyphenyl)ethanone]
[1]; HEK293
  concentration of maximal suppression of NF-κB DNA-binding activity: ~1 µM
  lowest concentration with evident suppression of NF-κB DNA-binding activity: 0.1 µM
[1]; compared to PKC inhibitor
  inhibition of p65-RelA DNA-binding activity: only partially inhibited
IKK-β phosphorylation
  inhibition of PMA/Ionomycin-induced IKK-β phosphorylation: significantly inhibited
[2]; read-out: IC50, PDB-induced IL-8 production
  IC50: 100 nM
[2]; read-out: IC50, PDBu-induced IL-8 secretion (cellular potency)
  IC50: < 100 nM
Raf
  inhibition of Raf: 57%
